# Reference: publication PMC9090415, “Discovery of small molecule inhibitors of Plasmodium falciparum apicoplast DNA polymerase” (Journal of Enzyme Inhibition and Medicinal Chemistry, 2022)
# Target: P. falciparum apicoplast DNA polymerase (Pf-apPOL) (Plasmodium falciparum, UniProt Q8ILY1)
# Test: Fluorescence-based high-throughput DNA polymerase assay (molecular beacon), primary screen and dose-response
# Assay type: biochemical
# Summary of the method: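 Single-point screening used 10 µM compound with 20 nM polymerase, 20 nM hairpin substrate and 6 µM dNTPs for 90 min at 25 °C. Confirmatory titrations (2.5–80 µM) followed fluorescence at three times, and IC50 was derived from a fit including a cooperativity term n.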
# Chain of P. falciparum apicoplast DNA polymerase (Pf-apPOL) (Q8ILY1 entry or part of it): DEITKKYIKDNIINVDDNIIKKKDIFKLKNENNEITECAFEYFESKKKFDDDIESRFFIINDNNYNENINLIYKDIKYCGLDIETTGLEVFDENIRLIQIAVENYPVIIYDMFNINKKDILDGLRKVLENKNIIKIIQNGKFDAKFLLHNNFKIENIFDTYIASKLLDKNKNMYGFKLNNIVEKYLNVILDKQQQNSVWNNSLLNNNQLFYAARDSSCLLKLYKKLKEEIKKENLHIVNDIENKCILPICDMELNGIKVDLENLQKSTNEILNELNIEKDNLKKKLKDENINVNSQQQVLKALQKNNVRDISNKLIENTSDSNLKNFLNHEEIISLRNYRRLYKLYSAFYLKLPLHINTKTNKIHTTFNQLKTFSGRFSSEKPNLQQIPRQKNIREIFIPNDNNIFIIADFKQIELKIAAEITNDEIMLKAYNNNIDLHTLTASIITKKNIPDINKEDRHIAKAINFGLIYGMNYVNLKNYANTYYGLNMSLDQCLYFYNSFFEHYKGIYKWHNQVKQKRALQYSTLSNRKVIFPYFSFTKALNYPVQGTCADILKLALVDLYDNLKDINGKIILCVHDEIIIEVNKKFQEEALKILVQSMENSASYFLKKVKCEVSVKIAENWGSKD
smiles,measurement,setting,value
CC1=NNC(=O)C1Oc1ccc(Cl)cc1Cl (stereo not shown) [KU0265591],DNA Pol,"'DNA Pol'; screening value, unit not given; 90 min, 10 µM",75
same,% inhibition Apo pol 10',DRC-1; 10'; concentration 2.5,8.365%
same,% inhibition Apo pol 10',DRC-1; 10'; concentration 5,10.5259%
same,% inhibition Apo pol 10',DRC-1; 10'; concentration 10,21.6096%
same,% inhibition Apo pol 10',DRC-1; 10'; concentration 20,39.4478%
same,% inhibition Apo pol 10',DRC-1; 10'; concentration 40,60.3328%
same,% inhibition Apo pol 10',DRC-1; 10'; concentration 80,74.8276%
same,% inhibition Apol 90',DRC-1; 90'; concentration 2.5,-1.52%
same,% inhibition Apol 90',DRC-1; 90'; concentration 5,-3.728%
same,% inhibition Apol 90',DRC-1; 90'; concentration 10,5.588%
same,% inhibition Apol 90',DRC-1; 90'; concentration 20,19.9514%
same,% inhibition Apol 90',DRC-1; 90'; concentration 40,37.9721%
same,% inhibition Apol 90',DRC-1; 90'; concentration 80,53.1645%
same,% inhibition apPOL 180',DRC-1; 180'; concentration 2.5,-5.173%
same,% inhibition apPOL 180',DRC-1; 180'; concentration 5,-9.633%
same,% inhibition apPOL 180',DRC-1; 180'; concentration 10,-1.598%
same,% inhibition apPOL 180',DRC-1; 180'; concentration 20,9.166%
same,% inhibition apPOL 180',DRC-1; 180'; concentration 40,27.6068%
same,% inhibition apPOL 180',DRC-1; 180'; concentration 80,41.8944%
same,% inhibition Apo pol 5',"DRC-2, 5', concentration 2.5",10%
same,% inhibition Apo pol 5',"DRC-2, 5', concentration 5",12%
same,% inhibition Apo pol 5',"DRC-2, 5', concentration 10",24%
same,% inhibition Apo pol 5',"DRC-2, 5', concentration 20",32%
same,% inhibition Apo pol 5',"DRC-2, 5', concentration 40",45%
same,% inhibition Apo pol 5',"DRC-2, 5', concentration 80",52%
same,% inhibition Apol 40',"DRC-2, 40', concentration 2.5",5%
same,% inhibition Apol 40',"DRC-2, 40', concentration 5",4.74%
same,% inhibition Apol 40',"DRC-2, 40', concentration 10",15%
same,% inhibition Apol 40',"DRC-2, 40', concentration 20",26%
same,% inhibition Apol 40',"DRC-2, 40', concentration 40",42%
same,% inhibition Apol 40',"DRC-2, 40', concentration 80",53%
same,% inhibition ApPOL 90',"DRC-2, 90', concentration 2.5",1.69%
same,% inhibition ApPOL 90',"DRC-2, 90', concentration 5",-0.164%
same,% inhibition ApPOL 90',"DRC-2, 90', concentration 10",9%
same,% inhibition ApPOL 90',"DRC-2, 90', concentration 20",20%
same,% inhibition ApPOL 90',"DRC-2, 90', concentration 40",37%
same,% inhibition ApPOL 90',"DRC-2, 90', concentration 80",51%
same,% inhibition apPOL 180',"DRC-2, 180', concentration 2.5",-3.43%
same,% inhibition apPOL 180',"DRC-2, 180', concentration 5",-6%
same,% inhibition apPOL 180',"DRC-2, 180', concentration 10",-1.09%
same,% inhibition apPOL 180',"DRC-2, 180', concentration 20",9%
same,% inhibition apPOL 180',"DRC-2, 180', concentration 40",26%
same,% inhibition apPOL 180',"DRC-2, 180', concentration 80",42%
same,% inhibition ApPOL 90',conc 10 (unit not given); 90'; DRC-2,9%
same,% inhibition Apol 40',conc 20 (unit not given); 40'; DRC-2,26%
same,% inhibition apPOL 180',conc 20 (unit not given); 180'; DRC-2,9%
same,% inhibition Apol 40',conc 40 (unit not given); 40'; DRC-2,42%
same,% inhibition apPOL 180',conc 40 (unit not given); 180'; DRC-2,26%
same,% inhibition apPOL 180',conc 80 (unit not given); 180'; DRC-2,42%
same,DNA Pol,"primary screen hit value, DNA Pol (186 hits); 90 min, 10 µM",75
Nc1c(S(=O)(=O)O)cc(Nc2ccccc2)c2c1C(=O)c1ccccc1C2=O [KU0045407],DNA Pol,"'DNA Pol' of the 186 hits list (primary screen result); unit not given; 90 min, 10 µM",49
same,% inhibition Apo pol 10',DRC-1; 10'; concentration 2.5,39.3278%
same,% inhibition Apo pol 10',DRC-1; 10'; concentration 5,47.4944%
same,% inhibition Apo pol 10',DRC-1; 10'; concentration 10,57.4142%
same,% inhibition Apo pol 10',DRC-1; 10'; concentration 20,88.2417%
same,% inhibition Apo pol 10',DRC-1; 10'; concentration 40,98.9011%
same,% inhibition Apo pol 10',DRC-1; 10'; concentration 80,101.451%
same,% inhibition Apol 90',DRC-1; 90'; concentration 2.5,14.8722%
same,% inhibition Apol 90',DRC-1; 90'; concentration 5,18.228%
same,% inhibition Apol 90',DRC-1; 90'; concentration 10,36.638%
same,% inhibition Apol 90',DRC-1; 90'; concentration 20,73.4923%
same,% inhibition Apol 90',DRC-1; 90'; concentration 40,92.3698%
same,% inhibition Apol 90',DRC-1; 90'; concentration 80,99.716%
same,% inhibition apPOL 180',DRC-1; 180'; concentration 2.5,5.356%
same,% inhibition apPOL 180',DRC-1; 180'; concentration 5,9.027%
same,% inhibition apPOL 180',DRC-1; 180'; concentration 10,27.7566%
same,% inhibition apPOL 180',DRC-1; 180'; concentration 20,64.7558%
same,% inhibition apPOL 180',DRC-1; 180'; concentration 40,88.0246%
same,% inhibition apPOL 180',DRC-1; 180'; concentration 80,99.8487%
same,% inhibition Apo pol 5',"DRC-2, 5', concentration 10 (unit not given)",39%
same,% inhibition Apo pol 5',"DRC-2, 5', concentration 40 (unit not given)",75%
same,% inhibition Apol 40',"DRC-2, 40', concentration 5 (unit not given)",15%
same,% inhibition Apol 40',"DRC-2, 40', concentration 20 (unit not given)",81%
same,% inhibition Apol 40',"DRC-2, 40', concentration 40 (unit not given)",86%
same,% inhibition ApPOL 90',"DRC-2, 90', concentration 10 (unit not given)",39%
same,% inhibition ApPOL 90',"DRC-2, 90', concentration 20 (unit not given)",81%
same,% inhibition apPOL 180',"DRC-2, 180', concentration 20 (unit not given)",75%
same,% inhibition apPOL 180',"DRC-2, 180', concentration 80 (unit not given)",86%
same,% inhibition Apo pol 5',DRC-2; 5'; concentration 2.5,2.61%
same,% inhibition Apo pol 5',DRC-2; 5'; concentration 5,15%
same,% inhibition Apo pol 5',DRC-2; 5'; concentration 5 (unit not given),15%
same,% inhibition Apo pol 5',DRC-2; 5'; concentration 10,39%
same,% inhibition Apo pol 5',DRC-2; 5'; concentration 20,73%
same,% inhibition Apo pol 5',DRC-2; 5'; concentration 40,75%
same,% inhibition Apo pol 5',DRC-2; 5'; concentration 80,62%
same,% inhibition Apol 40',DRC-2; 40'; concentration 2.5,1.87%
same,% inhibition Apol 40',DRC-2; 40'; concentration 5,15%
same,% inhibition Apol 40',DRC-2; 40'; concentration 10,40%
same,% inhibition Apol 40',DRC-2; 40'; concentration 20,81%
same,% inhibition Apol 40',DRC-2; 40'; concentration 40,86%
same,% inhibition Apol 40',DRC-2; 40'; concentration 80,80%
same,% inhibition ApPOL 90',DRC-2; 90'; concentration 2.5,2.58%
same,% inhibition ApPOL 90',DRC-2; 90'; concentration 5,14%
same,% inhibition ApPOL 90',DRC-2; 90'; concentration 10,39%
same,% inhibition ApPOL 90',DRC-2; 90'; concentration 20,81%
same,% inhibition ApPOL 90',DRC-2; 90'; concentration 40,87%
same,% inhibition ApPOL 90',DRC-2; 90'; concentration 80,83%
same,% inhibition apPOL 180',DRC-2; 180'; concentration 2.5,3.63%
same,% inhibition apPOL 180',DRC-2; 180'; concentration 5,5%
same,% inhibition apPOL 180',DRC-2; 180'; concentration 10,30%
same,% inhibition apPOL 180',DRC-2; 180'; concentration 20,75%
same,% inhibition apPOL 180',DRC-2; 180'; concentration 40,85%
same,% inhibition apPOL 180',DRC-2; 180'; concentration 80,86%
same,DNA Pol,"primary screen value of the library well; unit not given; 90 min, 10 µM",49
Cc1ccccc1NC(=O)Cn1ccc2c(=O)[nH]ccc21 [Molecule 85],IC50,"supplemental file 2, sheet IC50 nontoxic compounds; Pf-apPOL",9.12 µM
"CC(C)CCNC(=O)c1cnn2c(O)cc(CSc3ccc(Cl)cc3)nc12 [Molecule 101, CC(CCNC(=O)c1cnn2c1nc(CSc1ccc(cc1)Cl)cc2O)C]",DNA Pol,"'DNA Pol' of the 186 hits list (screen value); 90 min, 10 µM",47
same,% inhibition Apo pol 10',DRC-1; 10'; conc 2.5,0.1018%
same,% inhibition Apo pol 10',DRC-1; 10'; conc 5,10.5875%
same,% inhibition Apo pol 10',DRC-1; 10'; conc 10,55.0331%
same,% inhibition Apo pol 10',DRC-1; 10'; conc 20,79.7694%
same,% inhibition Apo pol 10',DRC-1; 10'; conc 40,93.5546%
same,% inhibition Apo pol 10',DRC-1; 10'; conc 80,97.7054%
same,% inhibition Apol 90',DRC-1; 90'; conc 2.5,-5.869%
same,% inhibition Apol 90',DRC-1; 90'; conc 5,6.076%
same,% inhibition Apol 90',DRC-1; 90'; conc 10,52.4114%
same,% inhibition Apol 90',DRC-1; 90'; conc 20,78.3109%
same,% inhibition Apol 90',DRC-1; 90'; conc 40,89.1904%
same,% inhibition Apol 90',DRC-1; 90'; conc 80,96.2635%
same,% inhibition apPOL 180',DRC-1; 180'; conc 2.5,-11.3834%
same,% inhibition apPOL 180',DRC-1; 180'; conc 5,-2.604%
same,% inhibition apPOL 180',DRC-1; 180'; conc 10,39.1813%
same,% inhibition apPOL 180',DRC-1; 180'; conc 20,71.0945%
same,% inhibition apPOL 180',DRC-1; 180'; conc 40,85.4085%
same,% inhibition apPOL 180',DRC-1; 180'; conc 80,94.6304%
same,% inhibition Apo pol 5',DRC-2; 5'; conc 2.5,-1.9%
same,% inhibition Apo pol 5',DRC-2; 5'; conc 5,20%
same,% inhibition Apo pol 5',DRC-2; 5'; conc 10,55%
same,% inhibition Apo pol 5',DRC-2; 5'; conc 20,59%
same,% inhibition Apo pol 5',DRC-2; 5'; conc 40,66%
same,% inhibition Apo pol 5',DRC-2; 5'; conc 80,69%
same,% inhibition Apo pol 5',DRC-2; 5'; concentration 40,66%
same,% inhibition Apo pol 5',DRC-2; 5'; concentration 80,69%
same,% inhibition Apol 40',DRC-2; 40'; conc 2.5,-1.08%
same,% inhibition Apol 40',DRC-2; 40'; conc 5,24%
same,% inhibition Apol 40',DRC-2; 40'; conc 10,65%
same,% inhibition Apol 40',DRC-2; 40'; conc 20,69%
same,% inhibition Apol 40',DRC-2; 40'; conc 40,76%
same,% inhibition Apol 40',DRC-2; 40'; conc 80,81%
same,% inhibition Apol 40',DRC-2; 40'; concentration 20,69%
same,% inhibition ApPOL 90',DRC-2; 90'; conc 2.5,-2.68%
same,% inhibition ApPOL 90',DRC-2; 90'; conc 5,22%
same,% inhibition ApPOL 90',DRC-2; 90'; conc 10,66%
same,% inhibition ApPOL 90',DRC-2; 90'; conc 20,70%
same,% inhibition ApPOL 90',DRC-2; 90'; conc 40,77%
same,% inhibition ApPOL 90',DRC-2; 90'; conc 80,83%
same,% inhibition ApPOL 90',DRC-2; 90'; concentration 10,66%
same,% inhibition apPOL 180',DRC-2; 180'; conc 2.5,-4.21%
same,% inhibition apPOL 180',DRC-2; 180'; conc 5,16%
same,% inhibition apPOL 180',DRC-2; 180'; conc 10,60%
same,% inhibition apPOL 180',DRC-2; 180'; conc 20,66%
same,% inhibition apPOL 180',DRC-2; 180'; conc 40,75%
same,% inhibition apPOL 180',DRC-2; 180'; conc 80,85%
same,% inhibition apPOL 180',DRC-2; 180'; concentration 20,66%
same,DNA Pol,"primary screen value, ""DNA Pol""; 90 min, 10 µM",47
